Data reported in the NIST ThermoML archive (doi:10.1016/j.tca.2017.09.013).
± gives the expanded uncertainty stated by the source.

Key:
[1] = Molar enthalpy of transition or fusion; details: Crystal; DSC
[2] = molar heat capacity at constant pressure; details: 101.33 kPa, Metastable liquid, Small sample (50 mg) DSC

Compound | Normal melting temperature (Crystal, DTA) [°C] | Glass transition temperature (Glass, DSC) [°C] | Molar enthalpy of transition or fusion [1] [kcal/mol] | molar heat capacity at constant pressure ([2]; 408 K) [J/K/mol] | molar heat capacity at constant pressure ([2]; 413 K) [J/K/mol] | molar heat capacity at constant pressure ([2]; 418 K) [J/K/mol] | molar heat capacity at constant pressure ([2]; 423 K) [J/K/mol] | molar heat capacity at constant pressure ([2]; 428 K) [J/K/mol]
Nc1cc[nH]c(=O)n1 [4-amino-2-hydroxypyrimidine] | 334 ± 3 | 115 ± 3 | 8.34 ± 0.55 | 268 ± 36 | 269 ± 38 | 271 ± 40 | 272 ± 42 | 274 ± 44
c1ccc2cc3ccccc3cc2c1 [anthracene] | – | – | 6.52 ± 0.693 | – | – | – | – | –
